Test results reported in patent publication US8975401B2, “Quinazoline based EGFR inhibitors containing a zinc binding moiety” (Curis, Inc., priority 2006, dated 2015).

Legend:
HDAC = HDAC fluorimetric enzyme assay (Biomol AK-500, HeLa nuclear extract); assay type: biochemical
Procedure: HDAC inhibitors were screened using an HDAC fluorimetric assay kit (AK-500, Biomol, Plymouth Meeting, Pa.).
Each assay was setup as follows: Defrosted all kit components and kept on ice until use. […] Prepared dilutions of Trichostatin A (TSA, positive control) and tested compounds in assay buffer (5× of final concentration). Diluted Fluor de Lys™ Substrate in assay buffer to 100 uM (50 fold=2× final). Diluted Fluor de Lys™ developer concentrate 20-fold (e.g. 50 μl plus 950 μl Assay Buffer) in cold assay buffer. Second, diluted the 0.2 mM Trichostatin A 100-fold in the 1× Developer (e.g. 10 μl in 1 ml; final Trichostatin A concentration in the 1× Developer=2 μM; final concentration after addition to HDAC/Substrate reaction=1 μM). Added Assay buffer, diluted trichostatin A or test inhibitor to appropriate wells of the microtiter plate. Added diluted HeLa extract or other HDAC sample to all wells except for negative controls.

VEGFR = VEGFR (Homo sapiens, UniProt P35968); assay: VEGFR assay (Table B); assay type: biochemical
[1] = molecular target: T1, human EGFR (His672-Ala1210) (Homo sapiens, UniProt P00533); assay: HTScan EGF Receptor Kinase Assay; assay type: biochemical
T1 construct: human EGFR (His672-Ala1210); GST (N); purchased Cell Signaling Technologies; host or cells: baculovirus expression system
Procedure: The ability of compounds to inhibit receptor kinase (EGFR) activity was assayed using HTSCAN™ EGF Receptor Kinase Assay Kits (Cell Signaling Technologies, Danvers, Mass.). […] The protein was purified by one-step affinity chromatography using glutathione-agarose.
Immediately transfer enzyme from −80° C. to ice. Allowed enzyme to thaw on ice. […] Returned immediately to ice. […] Incubated reaction plate at room temperature for 30 minutes. […] Added 100 μl/well primary antibody. Incubated at room temperature for 60 minutes. […] Added 100 μl/well diluted antibody. Incubated at room temperature for 30 minutes. […] Incubated at room temperature for 5 minutes.

A549 NSCLC Xenograft = assay: A549 NSCLC xenograft model; assay type: in vivo, mice; conditions: FIG. 11A, 11B
Procedure: A representative protocol for the in vivo experiment is as followed:
1-10×10^6 human cancer cells were implanted subcutaneously to the athymic (nu/nu) mice. When the tumors reached about 100 mm^3 in volume, the mice were treated with the compound by tail vein infusion. Routinely 5 groups (8-12 mice per group) are needed for a typical efficacy study, including one negative control, one positive control, and three testing groups for 3 dose levels of the same compound. Usually a 7-7-5 (on-off-on) regimen was used for one typical study. The tumor size was measured with an electronic caliper and body weight measured with a scale twice weekly. The tumors were removed from euthanized mice at the end of the study. One half of each tumor was frozen in dry ice and stored at −80° C. for PK or Western blot analysis. The other half was fixed with formalin. The fixed tissues were processed, embedded in paraffin and sectioned for immunohistochemistry staining

[2] = mouse, in vivo
Procedure: Plasma samples were prepared by protein precipitation.
Samples were compared to standards made in plasma. These standards were prepared by serial dilution. An internal standard was added into the plasma with standard.
Tissues were homogenized in 0.8 ml water.

[3] = remark: listed apart in the source
Source text: B. Filtration of the Solution
C. Preparation of a Lyophilisate

Chain of VEGFR (P35968 20-1356): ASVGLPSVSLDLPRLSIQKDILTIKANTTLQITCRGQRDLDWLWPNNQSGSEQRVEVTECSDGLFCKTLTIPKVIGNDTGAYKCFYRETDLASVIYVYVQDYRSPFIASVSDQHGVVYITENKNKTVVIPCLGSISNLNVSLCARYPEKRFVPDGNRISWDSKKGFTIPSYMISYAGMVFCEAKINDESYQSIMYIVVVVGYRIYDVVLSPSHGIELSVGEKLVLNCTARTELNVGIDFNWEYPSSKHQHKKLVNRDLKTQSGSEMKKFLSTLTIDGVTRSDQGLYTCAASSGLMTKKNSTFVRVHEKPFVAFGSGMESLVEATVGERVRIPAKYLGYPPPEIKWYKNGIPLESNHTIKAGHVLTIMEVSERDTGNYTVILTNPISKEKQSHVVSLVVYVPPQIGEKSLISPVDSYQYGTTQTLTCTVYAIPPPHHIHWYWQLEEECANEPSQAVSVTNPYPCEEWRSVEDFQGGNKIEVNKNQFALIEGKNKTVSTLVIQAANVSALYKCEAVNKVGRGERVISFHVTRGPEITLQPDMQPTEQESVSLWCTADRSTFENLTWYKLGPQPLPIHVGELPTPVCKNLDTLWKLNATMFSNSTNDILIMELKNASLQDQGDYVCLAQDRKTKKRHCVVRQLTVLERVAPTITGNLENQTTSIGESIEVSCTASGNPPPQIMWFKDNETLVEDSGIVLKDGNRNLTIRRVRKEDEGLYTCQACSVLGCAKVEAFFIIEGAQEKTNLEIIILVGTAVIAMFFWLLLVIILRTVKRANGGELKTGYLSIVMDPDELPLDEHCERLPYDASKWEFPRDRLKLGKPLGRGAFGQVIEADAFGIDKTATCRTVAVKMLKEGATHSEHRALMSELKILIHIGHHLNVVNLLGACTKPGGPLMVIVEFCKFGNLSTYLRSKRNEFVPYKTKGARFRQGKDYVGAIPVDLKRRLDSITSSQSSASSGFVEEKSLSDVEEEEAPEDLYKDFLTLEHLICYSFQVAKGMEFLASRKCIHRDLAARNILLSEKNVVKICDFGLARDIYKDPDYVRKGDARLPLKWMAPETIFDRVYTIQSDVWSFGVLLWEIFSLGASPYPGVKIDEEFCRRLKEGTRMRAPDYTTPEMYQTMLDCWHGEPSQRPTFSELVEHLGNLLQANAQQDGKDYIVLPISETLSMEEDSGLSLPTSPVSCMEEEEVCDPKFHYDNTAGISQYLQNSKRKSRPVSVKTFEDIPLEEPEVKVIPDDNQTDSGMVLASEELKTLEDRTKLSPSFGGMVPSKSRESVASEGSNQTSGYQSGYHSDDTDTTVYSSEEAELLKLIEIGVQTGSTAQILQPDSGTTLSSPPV
T1 sequence (P00533 672-1210): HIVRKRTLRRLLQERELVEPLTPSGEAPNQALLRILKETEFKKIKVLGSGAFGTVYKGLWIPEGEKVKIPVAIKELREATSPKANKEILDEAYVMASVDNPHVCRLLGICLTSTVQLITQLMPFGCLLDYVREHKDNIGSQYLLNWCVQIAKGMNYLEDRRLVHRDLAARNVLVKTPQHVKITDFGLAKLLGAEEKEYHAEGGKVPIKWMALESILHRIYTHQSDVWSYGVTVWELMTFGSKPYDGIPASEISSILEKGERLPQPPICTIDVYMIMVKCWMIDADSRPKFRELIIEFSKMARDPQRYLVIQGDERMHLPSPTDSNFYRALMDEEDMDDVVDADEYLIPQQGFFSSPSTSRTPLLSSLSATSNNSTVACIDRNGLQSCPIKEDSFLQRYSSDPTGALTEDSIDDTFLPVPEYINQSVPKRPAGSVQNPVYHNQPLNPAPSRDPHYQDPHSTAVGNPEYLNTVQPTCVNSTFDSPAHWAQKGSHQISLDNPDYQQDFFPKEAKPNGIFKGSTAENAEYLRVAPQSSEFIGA

COc1cc2ncnc(Nc3ccc(F)c(Cl)c3)c2cc1OCCCCCCC(=O)NO [Compound 6, 7-(4-(3-Chloro-4-fluorophenylamino)-7-methoxyquinazolin-6-yloxy)-N-hydroxyheptanamide]
activity in HDAC enzyme assay compared with SAHA (HDAC; FIG. 1): more active than erlotinib and SAHA
IC50 (VEGFR): 100 to 1000 nM
IC50 [1]: < 100 nM
activity in EFGR enzyme assay compared with erlotinib ([1]; FIG. 1): more active than erlotinib and SAHA

COc1cc2ncnc(N[C@H](C)c3ccccc3)c2cc1OCCCCCCC(=O)NO [Compound 79, (R)—N-hydroxy-7-(7-methoxy-4-(1-phenylethylamino)quinazolin-6-yloxy)heptanamide]
IC50 (VEGFR): > 10000 nM

COc1cc2ncnc(NCc3ccccc3)c2cc1OCCCCCCC(=O)NO [Compound 85, 7-(4-(Benzylamino)-7-methoxyquinazolin-6-yloxy)-N-hydroxyheptanamide]
IC50 (VEGFR): 1000 to 10000 nM
IC50 [1]: < 100 nM

C#Cc1cccc(Nc2ncnc3cc(OC)c(OCCCCCCC(=O)NOC)cc23)c1 [Compound 95, 7-(4-(3-ethynylphenylamino)-7-methoxyquinazolin-6-yloxy)-N-methoxyheptanamide]
melting point: 195.8 to 197 °C

COc1cc2ncnc(Nc3ccc(F)c(Cl)c3)c2cc1SCCCCC(=O)NO [Compound 151]
IC50 (HDAC): < 100 nM

COc1cc2ncnc(Nc3ccc(F)c(Cl)c3)c2cc1SCCCCCCC(=O)NO [Compound 155]
IC50 (HDAC): < 100 nM

C#Cc1cccc(Nc2ncnc3cc(OCCOC)c(OCCOC)cc23)c1 [Erlotinib, reference compound]
effect on tumor growth / tumor size (A549 NSCLC Xenograft): did not significantly affect tumor size

Sodium
IV Tissue [2]: High
Chemical stability in diluted solution [3]: >12 h
Dilution with D5W [3]: >10x
Solubility [3]: 7500 µg/mL
pH ([3]; salt in 30% CAPTISOL): 10-11

Tartaric Acid
IV Tissue [2]: High
